Experimental data as given in patent US20250127904A1, “SIGLEC LIGANDS, CONJUGATES, AND METHODS OF USE THEREOF” (Osprey Biopharmaceuticals, Inc., priority 2023, published 2025).

Experiments:
[1] = target: T1, biotinylated human siglec-2/CD22 protein-His-Avitag (Homo sapiens, UniProt P20273); assay: SPR binding to human siglec-2/CD22; settings: steady-state analysis, read-out: Human CD22 affinity
T1 construct: purchased Acro Biosystems SI2-H82E3
T1 sequence (P20273 20-847): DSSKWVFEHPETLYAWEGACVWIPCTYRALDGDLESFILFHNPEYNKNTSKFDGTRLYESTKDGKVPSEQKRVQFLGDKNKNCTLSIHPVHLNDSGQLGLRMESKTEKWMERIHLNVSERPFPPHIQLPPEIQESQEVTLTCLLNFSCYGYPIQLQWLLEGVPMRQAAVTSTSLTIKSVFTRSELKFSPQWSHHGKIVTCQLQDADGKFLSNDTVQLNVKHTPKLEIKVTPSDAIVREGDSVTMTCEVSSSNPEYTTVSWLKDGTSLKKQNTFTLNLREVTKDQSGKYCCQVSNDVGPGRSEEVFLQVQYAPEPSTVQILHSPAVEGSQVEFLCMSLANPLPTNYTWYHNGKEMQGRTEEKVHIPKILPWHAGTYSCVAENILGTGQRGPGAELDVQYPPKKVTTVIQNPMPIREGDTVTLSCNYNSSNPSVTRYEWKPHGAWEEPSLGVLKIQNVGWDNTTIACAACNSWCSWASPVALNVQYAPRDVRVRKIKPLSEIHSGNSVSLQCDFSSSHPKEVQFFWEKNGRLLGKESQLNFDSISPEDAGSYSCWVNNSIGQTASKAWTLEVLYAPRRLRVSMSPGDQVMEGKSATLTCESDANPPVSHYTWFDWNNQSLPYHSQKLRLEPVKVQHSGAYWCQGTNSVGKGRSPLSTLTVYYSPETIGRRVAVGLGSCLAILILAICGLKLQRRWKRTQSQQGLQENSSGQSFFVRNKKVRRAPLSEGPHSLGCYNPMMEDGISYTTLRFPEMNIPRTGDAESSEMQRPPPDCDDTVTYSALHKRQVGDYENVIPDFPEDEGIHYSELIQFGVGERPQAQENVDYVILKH
Protocol: (§1) The following proteins were used for CD22 ligand binding: biotinylated human siglec-2/CD22 protein-His-Avitag (Acro Biosystems, Cat #SI2-H82E3), biotinylated mouse siglec-2-Fc-Avi (in-house production), and recombinant cynomolgus siglec-2/CD22 His-tag (R&D systems, Cat #9864-SL-050). Prior to immobilization, CD22 proteins were treated with SialoExo (Genovis, Cat #G1-SM1-020) for 4 hours at 37° C. to remove native sialic acid residues.
(§2) Capture of biotinylated CD22 constructs was performed using a Cytiva SA chip (BR100398) on a Biacore 8K instrument. Human siglec 2 was immobilized on channels 1-4 and mouse siglec 2 on channels 5-8 on the active flow cell (2) and the reference flow cell (1) was immobilized with biotinylated human FGFR2 Fc Avi, an unrelated protein, to account for any nonspecific binding. Human siglec 2 and Mouse siglec 2 were diluted in running buffer to 20 μg/mL and injected on the active flow cell (2) for 300 seconds at 5 μL/min, yielding about 3500 RU of captured constructs.
(§3) Binding experiments of siglec-ligand conjugated proteins or Siglec ligand compounds were performed on the surfaces prepared above in 10 mM HEPES, 150 mM NaCl, 0.05% Tween-20, pH 7.5, 1% DMSO as the running buffer. Compounds were serially diluted in running buffer from 50 μM to 97.6 nM and injected over both the reference and active flow cells for 90 seconds at 30 μL/min. The compounds were then allowed to dissociate from the surface for 120 seconds. No regeneration was required as the compounds completely dissociated from the surface after 30 seconds. Solvent correction was performed using 0.5, 1, 1.5, and 2% DMSO spike into running buffer without DMSO. Data was analyzed using steady-state analysis in Biacore Insight Evaluation Software, version 3.0.

[2] = target: T2, biotinylated mouse siglec-2-Fc-Avi (Mus musculus, UniProt P35329); assay: SPR binding to mouse siglec-2/CD22; settings: steady-state analysis, read-out: Mouse CD22 affinity
T2 construct: made in house
T2 sequence (P35329 22-708 limits assumed): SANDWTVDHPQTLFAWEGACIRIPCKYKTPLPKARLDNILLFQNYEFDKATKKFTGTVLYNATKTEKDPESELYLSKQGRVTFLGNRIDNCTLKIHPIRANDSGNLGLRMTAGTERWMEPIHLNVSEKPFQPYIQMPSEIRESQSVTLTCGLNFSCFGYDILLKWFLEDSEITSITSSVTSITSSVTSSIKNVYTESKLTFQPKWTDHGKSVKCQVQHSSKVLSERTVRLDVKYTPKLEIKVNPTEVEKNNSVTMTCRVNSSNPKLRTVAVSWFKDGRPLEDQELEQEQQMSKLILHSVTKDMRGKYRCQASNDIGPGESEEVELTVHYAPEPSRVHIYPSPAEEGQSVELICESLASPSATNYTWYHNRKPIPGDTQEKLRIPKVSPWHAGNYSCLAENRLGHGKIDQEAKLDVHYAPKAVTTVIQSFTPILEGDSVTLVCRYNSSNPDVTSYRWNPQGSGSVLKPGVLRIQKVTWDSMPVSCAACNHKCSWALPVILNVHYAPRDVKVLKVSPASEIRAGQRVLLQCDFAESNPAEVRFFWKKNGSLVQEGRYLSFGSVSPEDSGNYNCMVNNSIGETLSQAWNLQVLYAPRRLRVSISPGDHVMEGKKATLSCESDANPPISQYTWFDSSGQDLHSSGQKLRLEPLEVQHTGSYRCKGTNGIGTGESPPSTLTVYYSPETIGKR
Protocol: as §1, §2, §3

[3] = target: recombinant cynomolgus siglec-2/CD22 His-tag (Macaca fascicularis, UniProt A0A2K5WCZ6); assay: SPR binding to cynomolgus siglec-2/CD22; settings: steady-state analysis, read-out: Cyno CD22 affinity
Protocol: as §1
Surface preparation for cyno CD22 protein consisted of amine coupling to Cytiva CM5 chip (Cytiva, Cat #BR100530) using the Cytiva amine coupling kit Type 2 (Cytiva, Cat #BR100633). Following the standard amine coupling protocols, EDC and NHS from the kit were mixed 1:1 and injected over flow cells 1 and 2. Cyno CD22 was then immobilized by injecting 10 μg/mL in Sodium Acetate, pH 5.5 onto flow cell (2) for 420 seconds at 10 uL/min, yielding approximately 2500 RU of captured protein. Any active carboxy groups were then capped with 1M Ethanolamine, pH 8.5 for 420 s on flow cells 1 and 2.
as §3

recombinant cynomolgus siglec-2/CD22 His-tag, sequence (A0A2K5WCZ6 entry or part of it): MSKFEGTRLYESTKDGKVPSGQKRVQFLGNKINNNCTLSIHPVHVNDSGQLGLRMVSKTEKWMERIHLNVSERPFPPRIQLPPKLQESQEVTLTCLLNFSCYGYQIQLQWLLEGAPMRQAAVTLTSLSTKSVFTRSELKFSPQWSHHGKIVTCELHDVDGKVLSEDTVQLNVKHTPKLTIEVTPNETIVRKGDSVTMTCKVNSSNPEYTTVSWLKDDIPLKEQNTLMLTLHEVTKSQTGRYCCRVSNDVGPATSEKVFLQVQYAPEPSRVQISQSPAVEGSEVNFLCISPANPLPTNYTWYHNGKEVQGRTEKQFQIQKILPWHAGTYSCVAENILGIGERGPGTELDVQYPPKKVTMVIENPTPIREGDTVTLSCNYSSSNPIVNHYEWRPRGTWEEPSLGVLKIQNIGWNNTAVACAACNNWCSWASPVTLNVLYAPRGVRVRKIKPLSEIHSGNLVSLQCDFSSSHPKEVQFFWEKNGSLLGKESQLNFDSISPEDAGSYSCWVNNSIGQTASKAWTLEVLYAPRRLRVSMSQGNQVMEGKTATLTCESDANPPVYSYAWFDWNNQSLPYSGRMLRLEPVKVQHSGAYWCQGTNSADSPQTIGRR

Structure (SMILES) | Kd [1] | Kd [2] | Kd [3]
C#Cc1ccc(CC(=O)NC[C@@H](O)[C@@H](O)[C@@H]2O[C@@](OCCCCCCNc3c(NCCOC)c(=O)c3=O)(C(=O)O)C[C@H](O)[C@H]2NC(=O)CO)cc1 [Compound 26, (2R,4S,5R,6R)-6-((1R,2R)-3-(2-(4-ethynylphenyl)acetamido)-1,2-dihydroxypropyl)-4-hydroxy-5-(2-hydroxyacetamido)-2-((6-((2-((2-methoxyethyl)amino)-3,4-dioxocyclobut-1-en-1-yl)amino)hexyl)oxy)tetrahydro-2H-pyran-2-carboxylic acid] | < 1000 nM | < 1000 nM | 
C#Cc1ccc(CC(=O)NC[C@@H](O)[C@@H](O)[C@@H]2O[C@@](OCCCCCCc3cn(CCOCCOC)nn3)(C(=O)O)C[C@H](O)[C@H]2NC(=O)CO)cc1 [Compound 27, (2R,4S,5R,6R)-6-((1R,2R)-3-(2-(4-ethynylphenyl)acetamido)-1,2-dihydroxypropyl)-4-hydroxy-5-(2-hydroxyacetamido)-2-((6-(1-(2-(2-methoxyethoxy)ethyl)-1H-1,2,3-triazol-4-yl)hexyl)oxy)tetrahydro-2H-pyran-2-carboxylic acid] | < 1000 nM | < 1000 nM | < 1000 nM
C#CCOCCOCCOc1ccc(CC(=O)NC[C@@H](O)[C@@H](O)[C@@H]2O[C@@](OCc3ccccc3)(C(=O)O)C[C@H](O)[C@H]2NC(=O)CO)cc1 [Compound 15, (2R,4S,5R,6R)-2-(benzyloxy)-6-((1R,2R)-1,2-dihydroxy-3-(2-(4-(2-(2-(prop-2-yn-1-yloxy)ethoxy)ethoxy)phenyl)acetamido)propyl)-4-hydroxy-5-(2-hydroxyacetamido)tetrahydro-2H-pyran-2-carboxylic acid] | 1000 to 10000 nM | 1000 to 10000 nM | 1000 to 10000 nM
CCCCCCO[C@]1(C(=O)O)C[C@H](O)[C@@H](NC(=O)CO)[C@H]([C@H](O)[C@H](O)CNC(=O)Cc2ccc(-c3cn(CCOCCOCCOCCC(=O)NCC)nn3)cc2)O1 [Compound 16, (2R,4S,5R,6R)-6-((1R,2R)-1,2-dihydroxy-3-(2-(4-(1-(12-oxo-3,6,9-trioxa-13-azapentadecyl)-1H-1,2,3-triazol-4-yl)phenyl)acetamido)propyl)-2-(hexyloxy)-4-hydroxy-5-(2-hydroxyacetamido)tetrahydro-2H-pyran-2-carboxylic acid] | < 1000 nM | < 1000 nM | < 1000 nM
C#Cc1ccc(CC(=O)NC[C@@H](O)[C@@H](O)[C@@H]2O[C@@](OCCCCCCN)(C(=O)O)C[C@H](O)[C@H]2NC(=O)CO)cc1 [Compound 10, (2R,4S,5R,6R)-2-((6-aminohexyl)oxy)-6-((1R,2R)-3-(2-(4-ethynylphenyl)acetamido)-1,2-dihydroxypropyl)-4-hydroxy-5-(2-hydroxyacetamido)tetrahydro-2H-pyran-2-carboxylic acid] | 1000 to 10000 nM | 1000 to 10000 nM | 
C#CCCCCCCC#Cc1ccc(CC(=O)NC[C@@H](O)[C@@H](O)[C@@H]2O[C@@](OCc3ccccc3)(C(=O)O)C[C@H](O)[C@H]2NC(=O)CO)cc1 [Compound 6, (2R,4S,5R,6R)-2-(benzyloxy)-6-((1R,2R)-3-(2-(4-(deca-1,9-diyn-1-yl)phenyl)acetamido)-1,2-dihydroxypropyl)-4-hydroxy-5-(2-hydroxyacetamido)tetrahydro-2H-pyran-2-carboxylic acid] | 1000 to 10000 nM | 1000 to 10000 nM | 
O=C(Cc1ccc(OCc2cn(CCO)nn2)cc1)NC[C@@H](O)[C@@H](O)[C@@H]1O[C@@](OCc2ccccc2)(C(=O)O)C[C@H](O)[C@H]1NC(=O)CO [Compound 5, (2R,4S,5R,6R)-2-(benzyloxy)-6-((1R,2R)-1,2-dihydroxy-3-(2-(4-((1-(2-hydroxyethyl)-1H-1,2,3-triazol-4-yl)methoxy)phenyl)acetamido)propyl)-4-hydroxy-5-(2-hydroxyacetamido)tetrahydro-2H-pyran-2-carboxylic acid] | 1000 to 10000 nM | 1000 to 10000 nM | 

Continued, values first:

Kd [1] | Kd [2] | Kd [3] | Structure (SMILES)
1000 to 10000 nM | 1000 to 10000 nM | 1000 to 10000 nM | CCCNC(=O)CCOCCOCCOCCn1cc(CO[C@H]2C[C@](OCc3ccccc3)(C(=O)O)O[C@@H]([C@H](O)[C@H](O)CNC(=O)Cc3ccc(Cl)cc3)[C@@H]2NC(=O)CO)nn1 [Compound 19, (2R,4S,5R,6R)-2-(benzyloxy)-6-((1R,2R)-3-(2-(4-chlorophenyl)acetamido)-1,2-dihydroxypropyl)-5-(2-hydroxyacetamido)-4-((1-(12-oxo-3,6,9-trioxa-13-azahexadecyl)-1H-1,2,3-triazol-4-yl)methoxy)tetrahydro-2H-pyran-2-carboxylic acid]
1000 to 10000 nM | 1000 to 10000 nM |  | O=C(Cc1ccc(-c2cn(CCO)nn2)cc1)NC[C@@H](O)[C@@H](O)[C@@H]1O[C@@](OCc2ccccc2)(C(=O)O)C[C@H](O)[C@H]1NC(=O)CO [Compound 2, (2R,4S,5R,6R)-2-(benzyloxy)-6-((1R,2R)-1,2-dihydroxy-3-(2-(4-(1-(2-hydroxyethyl)-1H-1,2,3-triazol-4-yl)phenyl)acetamido)propyl)-4-hydroxy-5-(2-hydroxyacetamido)tetrahydro-2H-pyran-2-carboxylic acid]
1000 to 10000 nM | 1000 to 10000 nM |  | C#CCOc1ccc(CC(=O)NC[C@@H](O)[C@@H](O)[C@@H]2O[C@@](OCc3ccccc3)(C(=O)O)C[C@H](O)[C@H]2NC(=O)CO)cc1 [Compound 4, (2R,4S,5R,6R)-2-(benzyloxy)-6-((1R,2R)-1,2-dihydroxy-3-(2-(4-(prop-2-yn-1-yloxy)phenyl)acetamido)propyl)-4-hydroxy-5-(2-hydroxyacetamido)tetrahydro-2H-pyran-2-carboxylic acid]
< 1000 nM | < 1000 nM |  | C#Cc1ccc(CC(=O)NC[C@@H](O)[C@@H](O)[C@@H]2O[C@@](OCCCCCCNC(=O)CCCC)(C(=O)O)C[C@H](O)[C@H]2NC(=O)CO)cc1 [Compound 29, (2R,4S,5R,6R)-6-((1R,2R)-3-(2-(4-ethynylphenyl)acetamido)-1,2-dihydroxypropyl)-4-hydroxy-5-(2-hydroxyacetamido)-2-((6-pentanamidohexyl)oxy)tetrahydro-2H-pyran-2-carboxylic acid]
